{"source": "paper PMC5599990", "about": "“Matriptase Induction of Metalloproteinase‐Dependent Aggrecanolysis In Vitro and In Vivo: Promotion of Osteoarthritic Cartilage Damage by Multiple Mechanisms” (Arthritis & Rheumatology (Hoboken, N.j.), 2017)", "target": "T1, matriptase (Homo sapiens, UniProt Q9Y5Y6)", "T1 construct": "gene ST14; catalytic domain; amino acids 596–855", "T1 sequence (Q9Y5Y6 596-855)": "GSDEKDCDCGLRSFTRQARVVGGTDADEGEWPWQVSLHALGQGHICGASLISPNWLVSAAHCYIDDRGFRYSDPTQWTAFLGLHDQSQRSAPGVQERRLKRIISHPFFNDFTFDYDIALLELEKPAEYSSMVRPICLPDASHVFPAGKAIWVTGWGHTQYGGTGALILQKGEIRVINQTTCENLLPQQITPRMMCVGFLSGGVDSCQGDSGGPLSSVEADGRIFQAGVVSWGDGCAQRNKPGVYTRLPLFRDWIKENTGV", "experiment": "isothermal titration calorimetry at […] °C ([…] stoichiometry); also enzyme inhibition, Ki =[…]", "assay_type": "binding"}
{"smiles": "N=C(N)c1cccc(C[C@H](NS(=O)(=O)c2cccc(NC(=O)CCN)c2)C(=O)N2CCC(CCN)CC2)c1", "note": "[compound 59, (S)‐3‐amino‐N‐(3‐(N‐(1‐(4‐(2‐aminoethyl)piperidin‐1‐yl)‐3‐(3‐carbamimidoylphenyl)‐1‐oxopropan‐2‐yl)sulfamoyl)phenyl)propanamide × 3HCl]", "values": [{"measurement": "Kd", "value": 20, "unit": "nM"}]}
